Laboratory results as given in publication PMC9732253, “Inhibition of the Phosphatidylinositol-3 Kinase Pathway Using Bimiralisib in Loss-of-Function NOTCH1-Mutant Head and Neck Cancer” (The Oncologist, 2022).

Description: All patients received 140 mg bimiralisib (PQR309) orally once daily on 2 consecutive days followed by 5 days without treatment weekly until unacceptable toxicity, tumor progression, patient request for withdrawal, investigator judgment, or death.
Radiologic tumor assessments were performed using computed tomography at baseline and every 6 weeks. Safety was continuously monitored.

With `Nc1cc(C(F)(F)F)c(-c2nc(N3CCOCC3)nc(N3CCOCC3)n2)cn1` [Bimiralisib, 5-(4,6-dimorpholino-1,3,5-triazin-2-yl)-4-(trifluoromethyl)pyridin-2-amine] the “Patients with AEs (any severity) suspected to be related to treatment” value (7 patients of 8) was 87.5%, the “AE leading to dose reduction” value (8 patients) was “No patients” and the Tolerability (8 patients, 140 mg orally 2 consecutive days weekly) was “well tolerated”. The “Aspiration pneumonia, AEs irrespective of causality” value (any grade, 2 patients of 8) was 25.0%, the “Confusional state, AEs irrespective of causality” value (any grade, 2 patients of 8) was 25.0% and the “Rash, AEs irrespective of causality” value (any grade, 2 patients of 8) was 25.0%. For the same molecule, the “Vomiting, AEs irrespective of causality” value (any grade, 2 patients of 8) was 25.0%, the “Fatigue, AEs irrespective of causality” value (any grade, 3 patients of 8) was 37.5% and the “Hyperglycemia, AEs irrespective of causality” value (any grade, 3 patients of 8) was 37.5%. The “Nausea, AEs irrespective of causality” value (any grade, 3 patients of 8) was 37.5%, the “Patients who died during the study” value (both events unrelated to treatment) was “Two” and the “SAEs related to treatment with bimiralisib” value (both hyperglycemia) was “Two”. The “Patients with severe AEs (SAEs, CTCAE grade ≥3)” value (five patients of 8) was 62.5%, the “Infections and infestations, Grade 1, patients” value (human, in vivo) was 0 n (%) and the “Infections and infestations, Grade 1, total number of events” value (human, in vivo) was 0. For the same molecule, the “Infections and infestations, Grade 2, patients” value (human, in vivo) was 2 (25.0) n (%), the “Infections and infestations, Grade 2, total number of events” value (human, in vivo) was 3 and the “Infections and infestations, Grade 3/4, total number of events” value (human, in vivo) was 3. The “Sepsis, Grade 1, patients” value (human, in vivo) was 0 n (%), the “Sepsis, Grade 1, total number of events” value (human, in vivo) was 0 and the “Sepsis, Grade 2, patients” value (human, in vivo) was 0 n (%). The “Sepsis, Grade 2, total number of events” value (human, in vivo) was 0, the “Sepsis, Grade 3/4, patients” value (human, in vivo) was 1 (12.5) n (%) and the “Skin infection, AEs irrespective of causality” value (human, in vivo) was 25%. The “Skin infection, Grade 1, patients” value (human, in vivo) was 0 n (%), the “Skin infection, Grade 1, total number of events” value (human, in vivo) was 0 and the “Skin infection, Grade 2, patients” value (human, in vivo) was 1 (12.5) n (%). For the same molecule, the “Skin infection, Grade 2, total number of events” value (human, in vivo) was 1, the “Skin infection, Grade 3/4, patients” value (human, in vivo) was 1 (12.5) n (%) and the “Wound infection, Grade 1, patients” value (human, in vivo) was 0 n (%). For the same molecule, the “Wound infection, Grade 1, total number of events” value (human, in vivo) was 0, the “Wound infection, Grade 2, patients” value (human, in vivo) was 1 (12.5) n (%) and the “Wound infection, Grade 2, total number of events” value (human, in vivo) was 1. The “Wound infection, Grade 3/4, patients” value (human, in vivo) was 0 n (%), the “Number of AEs (any severity) suspected to be related to treatment” value (in 7 patients) was 23 and the “Acute respiratory distress syndrome, Grade 1, patients” value (n = 8) was 0 n (%). For the same molecule, the “Acute respiratory distress syndrome, Grade 1, total number of events” value (n = 8) was 0, the “Acute respiratory distress syndrome, Grade 2, patients” value (n = 8) was 0 n (%) and the “Acute respiratory distress syndrome, Grade 2, total number of events” value (n = 8) was 0. The “Acute respiratory distress syndrome, Grade 3/4, patients” value (n = 8) was 1 (12.5) n (%), the “Acute respiratory distress syndrome, Grade 3/4, total number of events” value (n = 8) was 1 and the “Alanine aminotransferase increased, Grade 1, patients” value (n = 8) was 0 n (%). The “Alanine aminotransferase increased, Grade 1, total number of events” value (n = 8) was 0, the “Alanine aminotransferase increased, Grade 2, patients” value (n = 8) was 0 n (%) and the “Alanine aminotransferase increased, Grade 2, total number of events” value (n = 8) was 0. The “Alanine aminotransferase increased, Grade 3/4, patients” value (n = 8) was 1 (12.5) n (%), the “Alanine aminotransferase increased, Grade 3/4, total number of events” value (n = 8) was 1 and the “Anemia, Grade 1, patients” value (n = 8) was 0 n (%). For the same molecule, the “Anemia, Grade 1, total number of events” value (n = 8) was 0, the “Anemia, Grade 2, patients” value (n = 8) was 0 n (%) and the “Anemia, Grade 2, total number of events” value (n = 8) was 0. The “Anemia, Grade 3/4, patients” value (n = 8) was 1 (12.5) n (%), the “Anemia, Grade 3/4, total number of events” value (n = 8) was 1 and the “Any adverse event, Grade 1, patients” value (n = 8) was 8 (100.0) n (%). For the same molecule, the “Any adverse event, Grade 1, total number of events” value (n = 8) was 29, the “Any adverse event, Grade 2, patients” value (n = 8) was 3 (37.5) n (%) and the “Any adverse event, Grade 2, total number of events” value (n = 8) was 13. For the same molecule, the “Any adverse event, Grade 3/4, patients” value (n = 8) was 5 (62.5) n (%), the “Any adverse event, Grade 3/4, total number of events” value (n = 8) was 15 and the “Aspartate aminotransferase increased, Grade 1, patients” value (n = 8) was 0 n (%). For the same molecule, the “Aspartate aminotransferase increased, Grade 1, total number of events” value (n = 8) was 0, the “Aspartate aminotransferase increased, Grade 2, patients” value (n = 8) was 0 n (%) and the “Aspartate aminotransferase increased, Grade 2, total number of events” value (n = 8) was 0. The “Aspartate aminotransferase increased, Grade 3/4, patients” value (n = 8) was 1 (12.5) n (%), the “Aspartate aminotransferase increased, Grade 3/4, total number of events” value (n = 8) was 1 and the “Asthenia, Grade 1, patients” value (n = 8) was 1 (12.5) n (%). For the same molecule, the “Asthenia, Grade 1, total number of events” value (n = 8) was 1, the “Asthenia, Grade 2, patients” value (n = 8) was 0 n (%) and the “Asthenia, Grade 2, total number of events” value (n = 8) was 0. The “Asthenia, Grade 3/4, patients” value (n = 8) was 0 n (%), the “Asthenia, Grade 3/4, total number of events” value (n = 8) was 0 and the “Blood and lymphatic system disorders, Grade 1, patients” value (n = 8) was 0 n (%). The “Blood and lymphatic system disorders, Grade 1, total number of events” value (n = 8) was 0, the “Blood and lymphatic system disorders, Grade 2, patients” value (n = 8) was 0 n (%) and the “Blood and lymphatic system disorders, Grade 2, total number of events” value (n = 8) was 0. The “Blood and lymphatic system disorders, Grade 3/4, patients” value (n = 8) was 1 (12.5) n (%), the “Blood and lymphatic system disorders, Grade 3/4, total number of events” value (n = 8) was 1 and the “Blood creatinine increased, Grade 1, patients” value (n = 8) was 1 (12.5) n (%). For the same molecule, the “Blood creatinine increased, Grade 1, total number of events” value (n = 8) was 1, the “Blood creatinine increased, Grade 2, patients” value (n = 8) was 0 n (%) and the “Blood creatinine increased, Grade 2, total number of events” value (n = 8) was 0. The “Blood creatinine increased, Grade 3/4, patients” value (n = 8) was 0 n (%), the “Blood creatinine increased, Grade 3/4, total number of events” value (n = 8) was 0 and the “Blood glucose increased, Grade 1, patients” value (n = 8) was 1 (12.5) n (%). For the same molecule, the “Blood glucose increased, Grade 1, total number of events” value (n = 8) was 1, the “Blood glucose increased, Grade 2, patients” value (n = 8) was 0 n (%) and the “Blood glucose increased, Grade 2, total number of events” value (n = 8) was 0. For the same molecule, the “Blood glucose increased, Grade 3/4, patients” value (n = 8) was 0 n (%), the “Blood glucose increased, Grade 3/4, total number of events” value (n = 8) was 0 and the “Cellulitis, Grade 1, patients” value (n = 8) was 0 n (%). The “Cellulitis, Grade 1, total number of events” value (n = 8) was 0, the “Cellulitis, Grade 2, patients” value (n = 8) was 1 (12.5) n (%) and the “Cellulitis, Grade 2, total number of events” value (n = 8) was 1. For the same molecule, the “Cellulitis, Grade 3/4, patients” value (n = 8) was 0 n (%), the “Cellulitis, Grade 3/4, total number of events” value (n = 8) was 0 and the “Chest pain, Grade 1, patients” value (n = 8) was 1 (12.5) n (%). For the same molecule, the “Chest pain, Grade 1, total number of events” value (n = 8) was 1, the “Chest pain, Grade 2, patients” value (n = 8) was 0 n (%) and the “Chest pain, Grade 2, total number of events” value (n = 8) was 0.
